The values below come from ChEMBL document CHEMBL1201862, “PubChem BioAssay data set” (2004).

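Protocol summary: plate cells (96-well), add compound at 5 concentrations, incubate 48 h, interpolate endpoints linearly. GI50 = concentration required for 50% inhibition of growth.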 Calls of active or inactive are those of the source. Rule as the data show it: active = GI50 up to about 1.1 µM and inactive = higher. A value given as a limit tells only on which side of the number the result lay.

Some test systems named below: A549; DLD-1; EKVX; HCT-15; HOP-92; K562; NCI-H23; NCI-H522; OVCAR-5; SF-539; SK-OV-3; SNB-19; SR; TK-10; UO-31; DU-145; Hs-578T; MDA-MB-435; MDA-N; PC-3.
What all share (assay): NCI anticancer screen, dose series, 48 h

As to `Cn1cc(C(=O)c2ccccc2)ccc1=O`, the GI50 was > 100 µM (inactive) in the experiment on A549; > 100 µM (inactive) in the experiment with DLD-1; > 100 µM (inactive) in the experiment on EKVX; over 100 µM with HCT-15; > 100 µM (inactive) in the experiment on HOP-92; > 100 µM (inactive) in the experiment on K562. Besides, the GI50 in the experiment with NCI-H23, in the experiment on NCI-H522, in the experiment with OVCAR-5, in the experiment on SF-539, with SK-OV-3 and with SNB-19 was > 100 µM (inactive) throughout. For the same molecule, the GI50 in the experiment on SR, with TK-10 and with UO-31 was > 100 µM (inactive) throughout.

Consider `C1CCC(OCc2nnn3c2CCC3)OC1` (stereo unspecified), for which the GI50 in the experiment on A549 was > 100 µM (inactive); with DLD-1 it was > 100 µM (inactive); in the experiment on EKVX, > 100 µM (inactive); in the experiment on HCT-15, over 100 µM; in the experiment with HOP-92, > 100 µM (inactive); in the experiment on K562, > 100 µM (inactive). Also, the GI50 in the experiment with NCI-H23, in the experiment on NCI-H522, in the experiment on OVCAR-5, in the experiment on SF-539, in the experiment with SK-OV-3 and in the experiment with SR was > 100 µM (inactive) throughout. Besides, the GI50 in the experiment with TK-10 and in the experiment on UO-31 was > 100 µM (inactive) in each case.

As for `Nc1c(/N=N/c2ccc(-c3ccc(/N=N/c4c(O)ccc5cc(S(=O)(=O)O)cc(S(=O)(=O)O)c45)cc3)cc2)c(S(=O)(=O)O)cc2cc(S(=O)(=O)O)c(/N=N/c3ccccc3)c(O)c12`, the GI50 is > 70.8 µM (inactive) with A549; > 100 µM (inactive) in the experiment with DLD-1; > 100 µM (inactive) with EKVX; over 100 µM with HCT-15; > 69.7 µM (inactive) with HOP-92; > 100 µM (inactive) in the experiment with K562. The GI50 with NCI-H23 was > 96.8 µM (inactive); in the experiment with NCI-H522 it was > 100 µM (inactive); in the experiment on OVCAR-5, > 100 µM (inactive); in the experiment with SF-539, > 100 µM (inactive); in the experiment with SK-OV-3 it was > 100 µM (inactive); with SNB-19, > 100 µM (inactive). For the same molecule, the GI50 in the experiment with UO-31 is 6.84 µM (inactive).

Take `OCc1ccccc1C1CSCSC1`: the GI50 was > 100 µM (inactive) in the experiment with A549; > 100 µM (inactive) with DLD-1; over 100 µM in the experiment on HCT-15; > 100 µM (inactive) in the experiment with K562; > 100 µM (inactive) in the experiment on NCI-H522; > 100 µM (inactive) with SF-539. The GI50 in the experiment with SK-OV-3, with TK-10 and in the experiment on UO-31 was > 100 µM (inactive) in each case.

As to `CC1=C2[C@@H](c3ccccc3)C3C=CC2(C=C3C(F)(F)F)N(C(=O)NC2CCCCC2)C1=O` (stereo partly specified), the GI50 with A549 is 67.5 µM (inactive); in the experiment on DLD-1, > 100 µM (inactive); in the experiment with EKVX it was 69 µM (inactive); with HCT-15, 81.3 µM; in the experiment on HOP-92, > 100 µM (inactive); in the experiment on K562 it was 36.6 µM (inactive). Also, the GI50 with NCI-H23 was 59.8 µM (inactive); in the experiment on OVCAR-5 it was > 100 µM (inactive); in the experiment on SF-539, 52.4 µM (inactive); with SK-OV-3, > 100 µM (inactive); with SNB-19 it was > 100 µM (inactive); in the experiment with SR it was 15.8 µM (inactive). For the same molecule, the GI50 in the experiment on TK-10 was > 100 µM (inactive); with UO-31, 51.5 µM (inactive).

Take `COc1cc2oc(-c3ccc(O)cc3)cc(=O)c2c(O)c1C1OC(CO)C(O)C(O)C1O` (stereo unspecified): the GI50 was > 100 µM (inactive) in the experiment with A549; > 100 µM (inactive) in the experiment on DLD-1; > 100 µM (inactive) in the experiment with EKVX; over 100 µM with HCT-15; > 100 µM (inactive) in the experiment with K562; > 100 µM (inactive) in the experiment with NCI-H23. Besides, the GI50 with NCI-H522, in the experiment with OVCAR-5, in the experiment on SF-539, with SK-OV-3, with SNB-19 and in the experiment on SR was > 100 µM (inactive) throughout. In addition, the GI50 in the experiment on TK-10 and in the experiment with UO-31 was > 100 µM (inactive) in each case.

As for `C/C=C/c1cc2c(c(=O)o1)C(=O)[C@@H](O)[C@H](C)O2`, the GI50 in the experiment on A549 is 19.7 µM (inactive); in the experiment on DLD-1, 6.28 µM (inactive); with EKVX, 17.2 µM (inactive); with HCT-15, 11.2 µM; with HOP-92 it was 16.9 µM (inactive); with K562 it was 8.59 µM (inactive). Further, the GI50 in the experiment with NCI-H23 is 17 µM (inactive); in the experiment on NCI-H522, 7.91 µM (inactive); in the experiment with OVCAR-5, 17.2 µM (inactive); with SF-539, 18.6 µM (inactive); with SK-OV-3 it was 37.6 µM (inactive); in the experiment with SNB-19, 19.5 µM (inactive). Further, the GI50 with UO-31 is 19.7 µM (inactive).

For the molecule `CC1=C(C(=O)Nc2cccc(Cl)c2)C(c2ccc([N+](=O)[O-])cc2)C(C(=O)Nc2cccc(Cl)c2)=C(C)N1`, the GI50 with A549 was 28.9 µM (inactive); in the experiment on DLD-1, 21.8 µM (inactive); in the experiment on EKVX it was 33.3 µM (inactive); with HCT-15, 23.7 µM; with HOP-92 it was 11.5 µM (inactive); with K562 it was 24.8 µM (inactive). Also, the GI50 in the experiment with NCI-H23 was 21.3 µM (inactive); with NCI-H522, 26.3 µM (inactive); in the experiment with OVCAR-5, 48 µM (inactive); in the experiment on SF-539, 39.8 µM (inactive); in the experiment on SK-OV-3 it was 11.9 µM (inactive); in the experiment on SNB-19, 37.2 µM (inactive). For the same molecule, the GI50 is 67.3 µM (inactive) in the experiment on TK-10 and 17.7 µM (inactive) with UO-31.

On to `CCOC(=O)C1(Cc2ccc3ccccc3c2)CCCCC(=O)N1` (stereo unspecified), for which the GI50 with A549 is 39.1 µM (inactive); in the experiment on DLD-1, 25.6 µM (inactive); in the experiment with EKVX, 54.8 µM (inactive); in the experiment with HCT-15 it was 28.8 µM; in the experiment with HOP-92 it was 13.1 µM (inactive); in the experiment with K562, 4.55 µM (inactive). Besides, the GI50 is 26 µM (inactive) in the experiment with NCI-H23; 76 µM (inactive) with SK-OV-3; 36.5 µM (inactive) in the experiment on SNB-19; 56.1 µM (inactive) with TK-10; 23.9 µM (inactive) with UO-31.

As to `O=C(/C(=C/c1ccc(O)cc1)c1ccccc1)c1ccccc1`, the GI50 with A549 was 18 µM (inactive); in the experiment on DLD-1, 15.9 µM (inactive); in the experiment on EKVX, 20 µM (inactive); in the experiment on HCT-15, 18 µM; with HOP-92, 5.65 µM (inactive); in the experiment with K562 it was 17.8 µM (inactive). Moreover, the GI50 in the experiment with NCI-H23 was 15 µM (inactive); in the experiment on NCI-H522 it was 15.2 µM (inactive); in the experiment with OVCAR-5, 17 µM (inactive); in the experiment with SF-539, 16.6 µM (inactive); in the experiment on SK-OV-3 it was 20.8 µM (inactive); in the experiment on SR, 23.8 µM (inactive). For the same molecule, the GI50 was 16.2 µM (inactive) in the experiment on TK-10 and 15.4 µM (inactive) with UO-31.

`CCCCN(CC)c1nc(C)nc2c1c(C)c(C)n2-c1c(C)cc(C)cc1C` [ANTALARMIN]: the GI50 in the experiment on A549 is 14.2 µM (inactive); with DU-145, 16.6 µM (inactive); with EKVX, 14.2 µM (inactive); with HCT-15 it was 13.6 µM; in the experiment on HOP-92, 9.35 µM (inactive); in the experiment on Hs-578T it was 16.9 µM (inactive). Further, the GI50 in the experiment with K562 is 12.5 µM (inactive); with MDA-MB-435, 17.1 µM (inactive); with MDA-N, 20.1 µM (inactive); in the experiment on NCI-H23, 14.5 µM (inactive); with NCI-H522, 12.8 µM (inactive); in the experiment with OVCAR-5 it was 15.3 µM (inactive). Moreover, the GI50 in the experiment with PC-3 was 13.5 µM (inactive); in the experiment on SF-539, 2.69 µM (inactive); in the experiment with SK-OV-3, 17.1 µM (inactive); in the experiment on SNB-19, 16.4 µM (inactive); with SR, 8.45 µM (inactive); in the experiment on TK-10, 17.4 µM (inactive). For the same molecule, the GI50 with UO-31 is 14.7 µM (inactive).

`COCCOc1nc(-c2ccccc2)nc2ccccc12`: the GI50 in the experiment on A549 was 37.3 µM (inactive); in the experiment on DU-145 it was 54.7 µM (inactive); in the experiment with EKVX it was 55.8 µM (inactive); in the experiment with HCT-15, 19.2 µM; in the experiment with HOP-92, 27.6 µM (inactive); in the experiment on Hs-578T, 28.8 µM (inactive). In addition, the GI50 in the experiment with K562 is 35.5 µM (inactive); in the experiment with MDA-MB-435, 52.4 µM (inactive); in the experiment on MDA-N it was 32.5 µM (inactive); in the experiment with NCI-H23, 61.8 µM (inactive); in the experiment with NCI-H522, 35.3 µM (inactive); in the experiment on OVCAR-5, > 100 µM (inactive). The GI50 with PC-3 is 34.5 µM (inactive); with SF-539, 48.8 µM (inactive); with SK-OV-3, 46.7 µM (inactive); with SNB-19, 69.2 µM (inactive); in the experiment on SR it was 19.7 µM (inactive); with TK-10 it was 36 µM (inactive). Besides, the GI50 in the experiment on UO-31 is 38.6 µM (inactive).

For the molecule `CC1(C)C[C@H]2C=C(C=O)[C@]34C[C@]3(C(=O)OC4O)[C@H]2C1` (stereo partly specified), the GI50 is 2.83 µM (inactive) in the experiment with A549; 2.22 µM (inactive) in the experiment on DU-145; 1.61 µM (inactive) in the experiment with EKVX; 1.43 µM with HCT-15; 2.17 µM (inactive) in the experiment with HOP-92; 3.21 µM (inactive) in the experiment with Hs-578T. Also, the GI50 in the experiment with K562 is 4.58 µM (inactive); in the experiment on MDA-MB-435 it was 2.35 µM (inactive); with MDA-N, 1.37 µM (inactive); in the experiment with NCI-H23, 1.66 µM (inactive); in the experiment with NCI-H522, 0.443 µM (active); in the experiment on OVCAR-5, 2.37 µM (inactive). Moreover, the GI50 in the experiment with PC-3 was 2.84 µM (inactive); in the experiment with SF-539, 1.68 µM (inactive); in the experiment with SK-OV-3, 16 µM (inactive); in the experiment on SNB-19, 11.4 µM (inactive); in the experiment with SR, 2.56 µM (inactive); in the experiment on TK-10, 1.77 µM (inactive). In the experiment with UO-31, the GI50 was 1.83 µM (inactive).

Take `C=CC[N+](CCO)(CCO)CCCCCCCCCCCCCCCCCC`: the GI50 in the experiment on A549 was 11.3 µM (inactive); in the experiment with DLD-1, 5.93 µM (inactive); in the experiment with EKVX, 17 µM (inactive); with HCT-15, 12.8 µM; in the experiment on HOP-92, 1.5 µM (inactive); in the experiment with K562, 2.96 µM (inactive). Also, the GI50 with NCI-H23 was 12.5 µM (inactive); with NCI-H522 it was 3.77 µM (inactive); in the experiment on OVCAR-5, 14 µM (inactive); with SF-539, 3.54 µM (inactive); in the experiment with SK-OV-3, 10.9 µM (inactive); in the experiment on SNB-19, 8.91 µM (inactive). The GI50 in the experiment with UO-31 was 9.62 µM (inactive).
